Test results taken from ChEMBL document CHEMBL4321817, “A Chemical Probe for Tudor Domain Protein Spindlin1 to Investigate Chromatin Function” (J Med Chem, 2019).

Columns and labels:
Spindlin-1 = Spindlin-1 (Homo sapiens, UniProt Q9Y657); experiment: Displacement of trimethylated biotinylated histone H3 peptide from recombinant human His-tagged SPIN1 (26 to 262 residues) expressed in Escherichia coli BL21 (DE3) incubated for 30 mins followed by peptide addition and measured after 1 hr by Alphascreen method
Spindlin-1, sequence (Q9Y657 whole entry, the tested form may be a part): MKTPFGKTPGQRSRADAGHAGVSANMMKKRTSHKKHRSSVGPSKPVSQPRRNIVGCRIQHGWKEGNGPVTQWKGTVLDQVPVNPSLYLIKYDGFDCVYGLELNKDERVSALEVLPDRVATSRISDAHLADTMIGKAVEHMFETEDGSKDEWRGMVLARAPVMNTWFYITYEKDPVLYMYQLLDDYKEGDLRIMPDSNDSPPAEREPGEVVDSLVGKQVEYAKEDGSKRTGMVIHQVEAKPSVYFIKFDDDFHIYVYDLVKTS

[1] = molecular target: T1, Histone-lysine N-methyltransferase EHMT2 (Homo sapiens, UniProt Q96KQ7); experiment: Inhibition of G9a (unknown origin) by scintillation proximity Assay
T1 sequence (Q96KQ7 whole entry): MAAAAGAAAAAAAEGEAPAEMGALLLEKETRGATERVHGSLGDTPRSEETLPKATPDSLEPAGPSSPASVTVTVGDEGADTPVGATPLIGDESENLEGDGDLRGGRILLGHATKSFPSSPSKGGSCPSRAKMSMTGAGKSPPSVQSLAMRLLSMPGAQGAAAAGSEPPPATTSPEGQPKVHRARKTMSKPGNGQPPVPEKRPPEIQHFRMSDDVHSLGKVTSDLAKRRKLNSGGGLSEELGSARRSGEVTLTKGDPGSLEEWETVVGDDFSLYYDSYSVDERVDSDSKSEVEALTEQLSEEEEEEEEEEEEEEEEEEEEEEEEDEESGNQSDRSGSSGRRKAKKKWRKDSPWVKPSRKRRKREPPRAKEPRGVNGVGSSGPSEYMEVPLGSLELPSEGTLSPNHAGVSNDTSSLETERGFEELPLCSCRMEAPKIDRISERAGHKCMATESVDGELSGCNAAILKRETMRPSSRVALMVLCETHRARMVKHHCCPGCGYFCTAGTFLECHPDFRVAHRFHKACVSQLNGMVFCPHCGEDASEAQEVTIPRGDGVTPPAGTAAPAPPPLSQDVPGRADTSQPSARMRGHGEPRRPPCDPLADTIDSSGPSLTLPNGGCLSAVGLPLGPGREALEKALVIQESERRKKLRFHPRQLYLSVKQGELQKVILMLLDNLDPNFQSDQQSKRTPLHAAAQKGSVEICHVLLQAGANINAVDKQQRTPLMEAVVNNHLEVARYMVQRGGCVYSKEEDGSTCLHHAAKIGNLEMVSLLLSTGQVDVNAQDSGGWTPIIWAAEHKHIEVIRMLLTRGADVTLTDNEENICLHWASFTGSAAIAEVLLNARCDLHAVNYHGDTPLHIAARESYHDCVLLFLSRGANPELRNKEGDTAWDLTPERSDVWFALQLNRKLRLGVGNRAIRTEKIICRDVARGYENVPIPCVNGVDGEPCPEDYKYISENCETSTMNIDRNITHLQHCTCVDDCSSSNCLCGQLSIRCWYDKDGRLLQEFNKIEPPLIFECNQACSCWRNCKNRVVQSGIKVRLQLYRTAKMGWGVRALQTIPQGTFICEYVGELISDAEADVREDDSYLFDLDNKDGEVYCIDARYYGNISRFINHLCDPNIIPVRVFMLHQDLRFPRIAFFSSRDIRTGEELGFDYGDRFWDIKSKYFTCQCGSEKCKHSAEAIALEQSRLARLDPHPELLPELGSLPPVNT

U2OS = experiment: Cytotoxicity against human U2OS cells assessed as reduction in cell viability at >3 uM incubated for 2 days by propidium iodide staining based assay; conditions: 48 h
[2] = Apparent permeability from basolateral side to apical side in human Caco2 cells; type: ADME, cell-based; conditions: Caco-2
[3] = Stability in human liver microsomes assessed as half life; type: ADME, Microsome
[4] = Stability in moue liver microsomes assessed as intrinsic clearance; type: ADME, Microsome; conditions: mouse, read-out: CLH
[5] = Stability in mouse liver microsomes assessed as half life; type: ADME, Microsome
[6] = Solubility of compound at >100 uM; type: physicochemical
[7] = Apparent permeability from apical side to basolateral side in human Caco2 cells; type: ADME, cell-based; conditions: Caco-2
[8] = Stability in human liver microsomes assessed as intrinsic clearance; type: ADME, Microsome; conditions: read-out: CLH

| Structure (SMILES) | IC50 (Spindlin-1) [µM] | IC50 ([1]; read-out: IC50) [µM] | Activity (U2OS) | further results |
| --- | --- | --- | --- | --- |
| NC1=Nc2cc(OCCCN3CCCC3)c(OCC3CC3)cc2C12CCCC2 | 1.12 | 3.1 | – | – |
| COc1cc2c(cc1OCCCN1Cc3cccc(OC)c3C1)N=C(N)C21CCCC1 | 6.65 | – | – | – |
| COc1ccc2c(c1)CN(CCCOc1cc3c(cc1OC)C1(CCCC1)C(N)=N3)C2 | 0.6 | – | – | – |
| CC1(C)C(N)=Nc2cc(OCCCCN3Cc4ccc(OCc5cn(CC(=O)N6CCC(CCN7CCCC7)CC6)nn5)cc4C3)c(OCC3CC3)cc21 | – | – | Non-Toxic | – |
| NC1=Nc2cc(OCCCN3Cc4ccccc4C3)c(OCC3CC3)cc2C12CCCC2 | – | – | Toxic | IC50 [1]: Not Active |
| COc1cc2c(cc1OCCCN1CCCC1)N=C(N)C21CCCC1 | – | 0.006 | – | – |
| CCOc1cc2c(cc1OCCCN1CCCC1)N=C(N)C21CCCC1 | – | 0.12 | – | – |
| CC1(C)C(N)=Nc2cc(OCCCN3Cc4ccccc4C3)c(OCC3CC3)cc21 | – | – | Toxic | IC50 [1]: Not Active |
| NC1=Nc2cc(OCCCCN3Cc4ccccc4C3)c(OCC3CC3)cc2C12CCCC2 | 6.22 | – | Toxic | IC50 [1]: Not Active |
| COc1ccc2c(c1)CN(CCCOc1cc3c(cc1OCC1CC1)C1(CCCC1)C(N)=N3)C2 | 0.34 | – | – | – |
| CC1(C)C(N)=Nc2cc(OCCCCN3Cc4ccccc4C3)c(OCC3CC3)cc21 | 6.92 | – | Toxic | IC50 [1]: Not Active |
| CC1(C)C(N)=Nc2cc(OCCCN3Cc4ccc(OCCc5cn(CC(=O)N6CCC(CCN7CCCC7)CC6)nn5)cc4C3)c(OCC3CC3)cc21 | – | – | Non-Toxic | Papp B→A [2]: 6.07 ×10⁻⁶ cm/s; half-life [3]: 68.4 min; microsomal CLint [4]: 37.4 µL/min/mg; half-life [5]: 37.1 min; solubility [6]: Soluble; Papp A→B [7]: 6.59 ×10⁻⁶ cm/s; microsomal CLint [8]: 20.3 µL/min/mg |
| CC(C)Oc1cc2c(cc1OCCCN1CCCC1)N=C(N)C21CCCC1 | 8.91 | 0.9 | – | – |
| COc1cc2c(cc1OCCCN1Cc3ccccc3C1)N=C(N)C21CCCC1 | 0.66 | 10 | – | – |
